Experimental findings from patent US9481639B2, “Substituted tetracycline compounds for treatment of inflammatory skin disorders” (Paratek Pharmaceuticals, Inc., priority 2006, dated 2016) are described below.

Converted amounts (≈) assume the structure as drawn. Like-named read-outs stand apart in the source and are kept apart here.

Holding throughout (type): cell-based
Data set [1] is described as follows: in vitro. As to the method: Mammalian cell cytotoxicity was assessed to evaluate potential in vivo risks associated with the tetracycline compounds of the invention. A soluble, non-toxic redox dye (“Resazurin”; Alamar Blue) was used to assess a tetracycline compound's effect on cellular metabolism. At the onset of the experiment, cultures of mammalian COS-1 or CHO cells were washed, trypsinized, and harvested. […] On the next day, serial dilutions of test drug were prepared under sterile conditions and transferred to cell plates. Plates were then incubated under the above conditions for 24 hours. Following the incubation period, the media/drug was aspirated, and 50 μL of resazurin was added. Plates were then incubated under the above conditions for 2 hours and then in the dark at room temperature for an additional 30 minutes. Fluorescence measurements were taken (excitation 535 nm, emission 590 nm) and toxic effects in treated versus control cells were compared based on the degree of fluorescence in each well.

Data set [2] relates to P. acnes ATCC 6919. The experiment in a line: Antibacterial MIC, CLSI broth microdilution. Conditions: Cutibacterium acnes, ATCC6919. As to the method: (§1) Gram (−) and gram (+) antibacterial minimum inhibitory concentration (MIC) values (μg/mL) were obtained using CLSI methodology for anti-bacterial susceptibility testing. On each day of testing, serial dilutions of compounds were prepared in microdilution plates using a Tecan robotic workstation. Mueller Hinton broth cultures of representative sensitive and resistant gram negative strains were grown or adjusted to match the turbidity of a 0.5 McFarland standard. 1:200 dilutions were made in an appropriate broth (cation supplemented Mueller Hinton broth) to allow a final inoculum of 1×10^5 cfu. Plates were incubated at 35° C. in ambient air for 18-24 hours, were read spectrophotometrically and checked manually for evidence of bacterial growth. The lowest dilution of compound that inhibited growth was recorded as the MIC. Lysed horse blood was used to supplement broth for testing S. pneumoniae. The MIC's for each compound were assessed against S. aureus, S. pneumoniae, P. acnes, E. coli and B. theta.

Data set [3] relates to E. coli ATCC 25922. The experiment in a line: Antibacterial MIC, CLSI broth microdilution. Conditions: Escherichia coli, ATCC25922; 35° C., 18-24 hours. The method, then:
as §1

In data set [4] the test system is P. acnes ATCC 11827. The experiment in a line: Antibacterial MIC, CLSI broth microdilution. Conditions: Cutibacterium acnes, ATCC11827. The method, then:
as §1

Data set [5] relates to E. coli MG. 1655. As to the kind of experiment: Antibacterial MIC, CLSI broth microdilution. Conditions: Escherichia coli, 35° C., 18-24 hours. The method, then:
as §1

Data set [6] deals with B. thetaiotaomicron ATCC 29741. The experiment in a line: Antibacterial MIC, CLSI broth microdilution. As to the method:
as §1

In data set [7] the test system is S. aureus RN450. As to the kind of experiment: Antibacterial MIC, CLSI broth microdilution. Conditions: Staphylococcus aureus, 35° C., 18-24 hours. The method, then:
as §1

In data set [8] the test system is S. pneumoniae 157E - Strep. The experiment in a line: Antibacterial MIC, CLSI broth microdilution. Conditions: Streptococcus pneumoniae, 157ESTREP; broth supplemented with lysed horse blood. The method, then:
as §1

[9] abbreviates: Bacteroides thetaiotaomicron, ATCC29741; read-out: MIC B. thetaiotaomicron ATCC 29741.
[10] abbreviates: Bacteroides thetaiotaomicron, ATCC29741, read-out: MIC B. thetaiotaomicron ATCC 29741.

For the compound `CN(C)[C@@H]1C(O)=C(C(N)=O)C(=O)[C@@]2(O)C(O)=C3C(=O)c4c(O)ccc(CN5CCCCO5)c4C[C@H]3C[C@@H]12` [AV], the IC50 at 24 h in data set [1] (African green monkey) and in data set [1] (Chinese hamster) was 35 to 75 mg/L (≈ 68.2 to 146 µM) each time.
As to `CN(C)[C@H]1C(O)=C(C(N)=O)C(=O)[C@@]2(O)C(O)=C3C(=O)c4c(O)ccc(CNOCC(F)F)c4C[C@H]3C[C@@H]12` [AS], the IC50 at 24 h in data set [1] (African green monkey) and in data set [1] (Chinese hamster) was more than 75 mg/L throughout.
In the case of `CN(C)[C@@H]1C(O)=C(C(N)=O)C(=O)[C@@]2(O)C(O)=C3C(=O)c4c(O)ccc(CNOCC(F)(F)F)c4C[C@H]3C[C@@H]12` [AT], the half-maximal inhibitory concentration (IC50) at 24 h in data set [1] (African green monkey) and in data set [1] (Chinese hamster) was less than 35 mg/L each time.
Regarding `CN(C)[C@@H]1C(O)=C(C(N)=O)C(=O)[C@@]2(O)C(O)=C3C(=O)c4c(O)ccc(CNOCC(F)F)c4C[C@H]3C[C@@H]12` [AR], the values for the IC50 at 24 h in data set [1] (African green monkey) and in data set [1] (Chinese hamster) were less than 35 mg/L and 35 to 75 mg/L (≈ 66.9 to 143 µM), respectively.
`CC(=NOC(C)(C)C)c1cc(N)c(O)c2c1C[C@H]1C[C@H]3[C@@H](N(C)C)C(O)=C(C(N)=O)C(=O)[C@@]3(O)C(O)=C1C2=O` [R]: the IC50 at 24 h in data set [1] (African green monkey) and in data set [1] (Chinese hamster) was less than 35 mg/L throughout. In addition, the MIC in data set [2] is less than 4 mg/L; in data set [3], more than 8 mg/L; in data set [4] it was less than 4 mg/L; in data set [5] it was more than 8 mg/L; in data set [6] (setting [9]) it was 4 to 8 mg/L (≈ 7.37 to 14.7 µM); in data set [7], less than 4 mg/L. Also, in data set [8], the MIC is less than 4 mg/L.
For the compound `CON(C)Cc1ccc2c(c1O)C(=O)C1=C(O)[C@]3(O)C(=O)C(C(N)=O)=C(O)[C@@H](N(C)C)[C@@H]3C[C@@H]1C2` [Compound AP], the 50% inhibitory concentration (IC50) at 24 h in data set [1] (African green monkey) and in data set [1] (Chinese hamster) was 35 to 75 mg/L (≈ 71.8 to 154 µM) in each case. In addition, the MIC in data set [6] (setting [9]) was 4 to 8 mg/L (≈ 8.2 to 16.4 µM).
As for `CCON=C(C)c1cc(N)c(O)c2c1C[C@H]1C[C@H]3[C@H](N(C)C)C(O)=C(C(N)=O)C(=O)[C@@]3(O)C(O)=C1C2=O` [M], the IC50 at 24 h in data set [1] (African green monkey) and in data set [1] (Chinese hamster) was more than 75 mg/L in each case. The MIC in data set [2] was less than 4 mg/L; in data set [3], less than 4 mg/L; in data set [4] it was less than 4 mg/L; in data set [5], 4 to 8 mg/L (≈ 7.77 to 15.5 µM); in data set [6] (setting [9]), 4 to 8 mg/L (≈ 7.77 to 15.5 µM); in data set [7] it was less than 4 mg/L. Moreover, the minimum inhibitory concentration (MIC) in data set [8] was less than 4 mg/L.
On to `COC(=O)CONCc1ccc(O)c2c1C[C@H]1C[C@H]3[C@H](N(C)C)C(O)=C(C(N)=O)C(=O)[C@@]3(O)C(O)=C1C2=O` [AX], for which the IC50 at 24 h in data set [1] (African green monkey) and in data set [1] (Chinese hamster) was less than 35 mg/L in each case.
Take `CC(C)ONCc1ccc(O)c2c1C[C@H]1C[C@H]3[C@H](N(C)C)C(O)=C(C(N)=O)C(=O)[C@@]3(O)C(O)=C1C2=O` [Compound AN, (4S,4aS,5aR,12aS)-4-Dimethylamino-3,10,12,12a-tetrahydroxy-7-(isopropoxyamino-methyl)-1,11-dioxo-1,4,4a,5,5a,6,11,12a-octahydro-naphthacene-2-carboxylic acid amide]: the half-maximal inhibitory concentration (IC50) at 24 h in data set [1] (African green monkey) and in data set [1] (Chinese hamster) was less than 35 mg/L each time.
Consider `CN(C)[C@H]1C(O)=C(C(N)=O)C(=O)[C@@]2(O)C(O)=C3C(=O)c4c(O)ccc(CNOCC(F)(F)F)c4C[C@H]3C[C@@H]12` [AU], for which the IC50 at 24 h in data set [1] (African green monkey) and in data set [1] (Chinese hamster) was more than 75 mg/L in each case.
In the case of `CON(C)Cc1ccc(O)c2c1C[C@H]1C[C@H]3[C@@H](N(C)C)C(O)=C(C(N)=O)C(=O)[C@@]3(O)C(O)=C1C2=O` [Y], the minimum inhibitory concentration (MIC) in data set [6] (setting [10]) was more than 8 mg/L.
On to `CCON=C(C)c1cc(CNCC(C)(C)C)c(O)c2c1C[C@H]1C[C@H]3[C@H](N(C)C)C(O)=C(C(N)=O)C(=O)[C@@]3(O)C(O)=C1C2=O` [Compound N, (4S,4aS,5aR,12aS)-4-Dimethylamino-9-[(2,2-dimethyl-propylamino)-methyl]-7-(1-ethoxyimino-ethyl)-3,10,12,12a-tetrahydroxy-1,11-dioxo-1,4,4a,5,5a,6,11,12a-octahydro-naphthacene-2-carboxylic acid amide], for which the IC50 at 24 h in data set [1] (African green monkey) and in data set [1] (Chinese hamster) was more than 75 mg/L in each case. Besides, the MIC in data set [2] was less than 4 mg/L; in data set [3], less than 4 mg/L; in data set [4], less than 4 mg/L; in data set [5], 4 to 8 mg/L (≈ 6.68 to 13.4 µM); in data set [6] (setting [9]), less than 4 mg/L; in data set [7], less than 4 mg/L. This compound yielded an MIC in data set [8] of less than 4 mg/L.
`CON(C)Cc1ccc(O)c2c1C[C@H]1C[C@H]3[C@H](N(C)C)C(O)=C(C(N)=O)C(=O)[C@@]3(O)C(O)=C1C2=O` [Compound P]: the MIC in data set [6] (setting [10]) fell in the range of 4 to 8 mg/L (≈ 8.2 to 16.4 µM).
`CCON=C(CCN(C)C)c1ccc(O)c2c1C[C@H]1C[C@H]3[C@@H](N(C)C)C(O)=C(C(N)=O)C(=O)[C@@]3(O)C(O)=C1C2=O` [Compound I, (4R,4aS,5aR,12aS)-4-Dimethylamino-7-(3-dimethylamino-1-ethoxyimino-propyl)-3,10,12,12a-tetrahydroxy-1,11-dioxo-1,4,4a,5,5a,6,11,12a-octahydro-naphthacene-2-carboxylic acid amide]: the IC50 at 24 h in data set [1] (African green monkey) and in data set [1] (Chinese hamster) was more than 75 mg/L each time. Besides, the MIC was less than 4 mg/L in data set [2]; less than 4 mg/L in data set [3]; less than 4 mg/L in data set [4]; less than 4 mg/L in data set [5]; 4 to 8 mg/L (≈ 7.19 to 14.4 µM) in data set [6] (setting [9]); less than 4 mg/L in data set [7]. In data set [8], this compound returned an MIC of less than 4 mg/L.
For the compound `CN(C)[C@@H]1C(O)=C(C(N)=O)C(=O)[C@@]2(O)C(O)=C3C(=O)c4c(O)ccc(CNOCCF)c4C[C@H]3C[C@@H]12` [Compound AO, (4S,4aS,5aR,12aS)-4-Dimethylamino-7-[(2-fluoro-ethoxyamino)-methyl]-3,10,12,12a-tetrahydroy-1,11-dioxo-1,4,4a,5,5a,6,11,12a-octahydro-naphthacene-2-carboxylic acid amide], the IC50 at 24 h in data set [1] (African green monkey) and in data set [1] (Chinese hamster) was more than 75 mg/L each time.
Regarding `CN(C)CCC(=NOC(C)(C)C)c1ccc(O)c2c1C[C@H]1C[C@H]3[C@H](N(C)C)C(O)=C(C(N)=O)C(=O)[C@@]3(O)C(O)=C1C2=O` [O], the IC50 at 24 h in data set [1] (African green monkey) was 35 to 75 mg/L (≈ 59.9 to 128 µM); in data set [1] (Chinese hamster), less than 35 mg/L. The MIC in data set [2], in data set [3], in data set [4], in data set [5], in data set [6] (setting [9]) and in data set [7] was less than 4 mg/L each time. The same compound came in with an MIC in data set [8] of less than 4 mg/L.
Regarding `CC(=NOCC(F)(F)F)c1cc(N)c(O)c2c1C[C@H]1C[C@H]3[C@H](N(C)C)C(O)=C(C(N)=O)C(=O)[C@@]3(O)C(O)=C1C2=O` [Compound AW, (4S,4aS,5aR,12aS)-9-Amino-4-dimethylamino-3,10,12,12a-tetrahydroxy-1,1,1-dioxo-7-[1-(2,2,2-trifluoro-ethoxyimino)-ethyl]-1,4,4a,5,5a,6,11,12a-octahydro-naphthacene-2-carboxylic acid amide], the MIC was less than 4 mg/L in data set [2]; 4 to 8 mg/L (≈ 7.04 to 14.1 µM) in data set [3]; less than 4 mg/L in data set [4]; 4 to 8 mg/L (≈ 7.04 to 14.1 µM) in data set [5]; 4 to 8 mg/L (≈ 7.04 to 14.1 µM) in data set [6] (setting [9]); less than 4 mg/L in data set [7]. For the same compound, in data set [8], the MIC was less than 4 mg/L.
Regarding `CCONCc1ccc2c(c1O)C(=O)C1=C(O)[C@]3(O)C(=O)C(C(N)=O)=C(O)[C@@H](N(C)C)[C@@H]3C[C@@H]1C2` [AQ], the IC50 at 24 h in data set [1] (African green monkey) and in data set [1] (Chinese hamster) was less than 35 mg/L each time.
